One assay concerns the target T1, HDAC7 (Homo sapiens, UniProt Q8WUI4).
T1 sequence (Q8WUI4 1-952): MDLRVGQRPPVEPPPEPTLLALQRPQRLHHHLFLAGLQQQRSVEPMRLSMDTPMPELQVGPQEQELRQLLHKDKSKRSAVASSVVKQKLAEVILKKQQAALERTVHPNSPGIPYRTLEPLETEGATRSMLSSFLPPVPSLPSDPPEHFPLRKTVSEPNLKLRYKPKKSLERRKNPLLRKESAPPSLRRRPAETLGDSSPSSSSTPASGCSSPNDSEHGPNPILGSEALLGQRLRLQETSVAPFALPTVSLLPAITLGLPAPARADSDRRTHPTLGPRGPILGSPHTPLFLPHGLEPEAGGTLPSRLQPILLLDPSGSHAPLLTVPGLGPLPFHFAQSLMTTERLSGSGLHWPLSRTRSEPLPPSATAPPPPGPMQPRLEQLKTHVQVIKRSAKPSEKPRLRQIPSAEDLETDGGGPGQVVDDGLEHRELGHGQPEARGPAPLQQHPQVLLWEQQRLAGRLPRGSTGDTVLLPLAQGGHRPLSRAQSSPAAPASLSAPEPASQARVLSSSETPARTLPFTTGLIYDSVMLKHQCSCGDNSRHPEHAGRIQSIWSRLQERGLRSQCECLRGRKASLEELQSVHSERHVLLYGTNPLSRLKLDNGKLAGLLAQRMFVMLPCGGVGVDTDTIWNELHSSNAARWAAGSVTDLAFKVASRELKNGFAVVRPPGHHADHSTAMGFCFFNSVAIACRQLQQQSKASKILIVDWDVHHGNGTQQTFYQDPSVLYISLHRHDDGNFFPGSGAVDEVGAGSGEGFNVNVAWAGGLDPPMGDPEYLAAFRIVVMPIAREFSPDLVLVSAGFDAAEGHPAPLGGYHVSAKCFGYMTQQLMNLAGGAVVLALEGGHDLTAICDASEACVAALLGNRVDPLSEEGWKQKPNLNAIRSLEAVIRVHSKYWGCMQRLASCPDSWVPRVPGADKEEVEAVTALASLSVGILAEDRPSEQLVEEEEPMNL
The experiment in a line: HDAC biochemical activity measurement (fluorescent substrate deacetylation).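 Further: fluorogenic deacetylation assay using acetyl-lysine substrate at 20 µM, enzyme and compound incubated 30 min at 37 °C, then developer added, fluorescence read at 360/460 nm.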 The conditions noted are these: HDAC7; 37° C. 30 minutes.

The test system of assay [1] is MCF-7 (human breast cancer cells). The experiment in a line: MTT cancer cell growth inhibition. In kind it is cell-based. The conditions noted are these: Homo sapiens, MCF7, 72 h, 72 hours incubation, read-out: GI50 MCF. The procedure, abridged:
(§1)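 GI50 values come from MTT viability: after 72 h compound exposure (final 10^−5–10^−10 M, three wells each) of cells plated overnight at 1500/well in 10% FBS medium, MTT was given for 4 h. The DMSO-solubilised formazan was then measured at 570 nm.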

Assay [2] relates to KBM5-T315I (human chronic myelogenous leukemia). The experiment in a line: MTT cancer cell growth inhibition. In kind it is cell-based. The conditions noted are these: Homo sapiens, 72 h, MTT, 72 hours incubation, KBM5-T315I cells; read-out: GI50 KBM5-T315I. In short, it runs like this:
as §1

Assay [3] concerns HCC827 (human non-small cell lung cancer cells). Description: MTT cancer cell growth inhibition. In kind it is cell-based. The conditions noted are these: Homo sapiens, HCC827, 72 h, MTT, 72 hours incubation, HCC827 cells; read-out: GI50 HCC827. The procedure, abridged: as §1
Assay [4] concerns SGC-7901 (human gastric cancer cells). The experiment in a line: MTT cancer cell growth inhibition. The conditions noted are these: Homo sapiens, SGC-7901, 72 h, MTT, 72 hours incubation, SGC-7901 cells; read-out: GI50 SGC-7901. The class given is cell-based. In short, it runs like this:
as §1

Assay [5] has as its system U937 (human leukemia cells). The experiment in a line: MTT cancer cell growth inhibition. The class given is cell-based. The conditions noted are these: Homo sapiens, U-937, 72 h, MTT, 72 hours incubation, read-out: GI50 U93. The procedure, abridged: as §1
Assay [6] relates to MOLT-4 (human acute lymphoblastic leukemia cells). Description: MTT cancer cell growth inhibition. The class given is cell-based. The conditions noted are these: Homo sapiens, MOLT-4, 72 h, MTT, 72 hours incubation, read-out: GI50 Mol. The procedure, abridged: as §1
In assay [7] the test system is K562 (human leukemia cells). Description: MTT cancer cell growth inhibition. The class given is cell-based. The conditions noted are these: Homo sapiens, K562, 72 h, MTT, 72 hours incubation, K562 cells; read-out: GI50 K562. The procedure, abridged:
as §1

Assay [8] has as its system BGC-823 (human gastric cancer cells). The experiment in a line: MTT cancer cell growth inhibition. The conditions noted are these: Homo sapiens, BGC-823, 72 h, MTT, 72 hours incubation, read-out: GI50 BG. The class given is cell-based. The procedure, abridged:
as §1

The subject of assay [9] is DU145 (human prostate cancer cells). The experiment in a line: MTT cancer cell growth inhibition. In kind it is cell-based. The conditions noted are these: Homo sapiens, DU-145, 72 h, MTT, 72 hours incubation, read-out: GI50 Du1. The procedure, abridged: as §1
The test system of assay [10] is Hela (human cervical cancer cells). The experiment in a line: MTT cancer cell growth inhibition. In kind it is cell-based. The conditions noted are these: Homo sapiens, HeLa, 72 h, MTT, 72 hours incubation, read-out: GI50 Hela. The procedure, abridged:
as §1

For assay [11], the system named is Bel-7402 (human hepatoma cells). The experiment in a line: MTT cancer cell growth inhibition. In kind it is cell-based. The conditions noted are these: Homo sapiens, Bel-7402, 72 h, MTT, 72 hours incubation, Bel-7402 cells; read-out: GI50 Bel-7402. In short, it runs like this:
as §1

Assay [12] relates to HT1080 (human fibrosarcoma cells). The experiment in a line: MTT cancer cell growth inhibition. The conditions noted are these: Homo sapiens, HT-1080, 72 h, MTT, 72 hours incubation, read-out: GI50 HT1. In kind it is cell-based. The procedure, abridged: as §1
Assay [13] has as its system Huh-7 (human hepatoma cells). Description: MTT cancer cell growth inhibition. The class given is cell-based. The conditions noted are these: Homo sapiens, Huh-7, 72 h, MTT, 72 hours incubation, Huh-7 cells; read-out: GI50 Huh-7. The procedure, abridged: as §1
Assay [14] has as its system lncap (prostate cancer cells). The experiment in a line: MTT cancer cell growth inhibition. The class given is cell-based. The conditions noted are these: Homo sapiens, LNCaP, 72 h, MTT, 72 hours incubation, read-out: GI50 lnca. The procedure, abridged:
as §1

Assay [15] deals with MDA-MB-231 (breast cancer cells). The experiment in a line: MTT cancer cell growth inhibition. In kind it is cell-based. The conditions noted are these: Homo sapiens, MDA-MB-231, 72 h, read-out: GI50 MDA-MB-231, MTT, 72 hours incubation, MDA-MB-231 cells. The procedure, abridged: as §1
For assay [16], the system named is PANC-1 (Pac-1, human pancreatic cancer cells). Description: MTT cancer cell growth inhibition. In kind it is cell-based. The conditions noted are these: Homo sapiens, PANC-1, 72 h, MTT, 72 hours incubation, read-out: GI50 PAN. The procedure, abridged: as §1
Assay [17] concerns N-87 (human gastric cancer cells). Description: MTT cancer cell growth inhibition. The conditions noted are these: Homo sapiens, 72 h, MTT, 72 hours incubation, N-87 cells; read-out: GI50 N-87. The class given is cell-based. The procedure, abridged: as §1
In assay [18] the test system is A549 (human lung cancer cells). The experiment in a line: MTT cancer cell growth inhibition. The class given is cell-based. The conditions noted are these: Homo sapiens, A549, 72 h, MTT, 72 hours incubation, read-out: GI50 A54. In short, it runs like this: as §1
Assay [19] has as its system KBM-5 (human chronic myelogenous leukemia). The experiment in a line: MTT cancer cell growth inhibition. In kind it is cell-based. The conditions noted are these: Homo sapiens, KBM5, 72 h, MTT, 72 hours incubation, KBM-5 cells; read-out: GI50 KBM-5. The procedure, abridged:
as §1

The subject of assay [20] is H1975 (non-small cell lung adenocarcinoma). The experiment in a line: MTT cancer cell growth inhibition. In kind it is cell-based. The conditions noted are these: Homo sapiens, NCI-H1975, 72 h, MTT, 72 hours incubation, H1975 cells; read-out: GI50 H1975. The procedure, abridged:
as §1

Like-named read-outs stand apart in the source and are kept apart here.

One may read the GI50 as the concentration at which growth is held to half of that of the control. For `C=C1NC(=O)c2nc(ccc2F)CNC(=O)C[C@@H](/C=C/CCS)OC(=O)[C@H](C)NC1=O` [Compound 140], on HDAC7, the “IC50 HDAC7” value is “no activity”. Further, the GI50 in [1] was 80 nM; in [2], 33 nM; in assay [3], 21 nM; in assay [4], 44 nM; in assay [5] it was 70 nM; in assay [6] it was 50 nM. Besides, the concentration for 50% growth inhibition (GI50) amounted to 39 nM in [7]; 100 nM in assay [8]; 60 nM in assay [9]; 130 nM in [10]; 79 nM in [11]; 50 nM in assay [12]. The 50% growth inhibitory concentration (GI50) is 42 nM in assay [13]; 20 nM in assay [14]; 31 nM in assay [15]; 30 nM in assay [16]; 55 nM in assay [17]; 30 nM in [18]. Further, the GI50 amounted to 31 nM in assay [19] and 63 nM in assay [20].

With `C/C=C1\NC(=O)c2ccc(SC)c(n2)CNC(=O)C[C@@H](/C=C/CCSC(C)=O)OC(=O)[C@H](CCCCNC(=O)OCC2c3ccccc3-c3ccccc32)NC1=O` [Compound 197], the “IC50 HDAC7” value against HDAC7 is “no activity”. The GI50 stood at 50 nM in [1] (MCF-7 cells); 21 nM in [2]; 71 nM in assay [3]; 43 nM in [4]; 80 nM in assay [5] (U937 cells); 40 nM in [6] (MOLT-4 cells). The GI50 worked out at 49 nM in [7]; 40 nM in assay [8] (BGC-823 cells); 50 nM in [9] (DU145 cells); 70 nM in [10] (Hela cells); 52 nM in assay [11]; 50 nM in assay [12] (HT1080 cells). Moreover, the GI50 worked out at 76 nM in assay [13]; 30 nM in assay [14] (lncap cells); 16 nM in assay [15]; 40 nM in [16] (PANC-1 cells); 28 nM in assay [17]; 60 nM in [18] (A549 cells). In addition, the GI50 was determined as 86 nM in assay [19] and 45 nM in assay [20].

Take `C/C=C1\NC(=O)c2cc(SC)cc(n2)CNC(=O)C[C@@H](/C=C/CCSC(C)=O)OC(=O)[C@H](C(C)C)NC1=O` [Compound 166]: the “IC50 HDAC7” value against HDAC7 is reported as “no activity”. Besides, the GI50 came to 60 nM in assay [1] (MCF-7 cells); 53 nM in assay [2]; 31 nM in assay [3]; 42 nM in [4]; 30 nM in assay [5] (U937 cells); 30 nM in assay [6] (MOLT-4 cells). Moreover, the GI50 in assay [7] was 46 nM; in assay [8] (BGC-823 cells), 70 nM; in [9] (DU145 cells) it was 60 nM; in assay [10] (Hela cells), 50 nM; in assay [11] it was 68 nM; in [12] (HT1080 cells), 80 nM. For the same compound, the GI50 came out at 56 nM in assay [13]; 70 nM in [14] (lncap cells); 17 nM in assay [15]; 20 nM in assay [16] (PANC-1 cells); 73 nM in [17]; 10 nM in assay [18] (A549 cells). Moreover, the values for the concentration for 50% growth inhibition (GI50) in [19] and in assay [20] were 50 nM and 26 nM, respectively.

For `CC(=O)SCC/C=C/[C@@H]1CC(=O)NCc2nc(ccc2F)C(=O)NC(=C(C)C)C(=O)N[C@@H](C(C)C)C(=O)O1` [Compound 89], on HDAC7, the “IC50 HDAC7” value is on record as “no activity”. Also, the GI50 was 30 nM in assay [1]; 38 nM in [2]; 83 nM in assay [3]; 34 nM in assay [4]; 20 nM in [5]; 30 nM in assay [6]. The GI50 turned out to be 16 nM in assay [7]; 10 nM in [8]; 10 nM in assay [9]; 90 nM in assay [10]; 83 nM in assay [11]; 80 nM in assay [12]. For the same compound, the GI50 came out at 31 nM in assay [13]; 30 nM in assay [14]; 31 nM in [15]; 80 nM in assay [16]; 13 nM in assay [17]; 30 nM in [18]. In addition, the values for the GI50 in assay [19] and in [20] were 93 nM and 26 nM, respectively.

Values taken from patent US10065990B2, “Cyclic peptide compound, and preparation method, pharmaceutical composition and use thereof” (HANGZHOU GUANYU BIO-MEDICAL CO., LTD, priority 2013, dated 2018).
